The text below walks through data of patent publication US11090305B2, “Methods and compositions to reduce oxidative stress” (University of Massachusetts, priority 2009, dated 2021).

Experiment [1] has as its system db/db MSC. As to the kind of experiment: Response of db/db MSC to adipogenic medium (Oil Red O staining). Type of experiment: cell-based, mouse. The procedure: Adipocytes were identified by Oil Red O staining. m±sd, n=5, *p<0.05.
Adipocytes were identified by Oil Red O staining. m±sd, n=4, *p<0.05 vs control. […] Endothelial cells were identified by CD31 staining. m±sd, n=4, *p<0.05 vs control, #p<0.05 vs 5 nM.

Experiment [2] concerns HSCs from hypercholesterolemic mice. As to the kind of experiment: H2O2 in lysates from freshly harvested HSCs. On the set-up: species or system mouse. The settings on record: ApoE and HCD mice, in vivo treatment. The procedure: HSCs were purified from bone marrow mononuclear cells by multi-parameter FACS sorting using the surface phenotype cKit^+Sca-1^+CD90.1^lowLin^−. A greater percentage of HSCs from ApoE^−/− and HCD mice stain with 2′,7′-dichlorofluorescein diacetate than WT KSL cells, indicating a higher oxidant level in cells from hypercholesterolemic mice. Two additional assays were carried out that confirmed this earlier finding: first, the level of H2O2 in HSC cell lysates, determined by spectrophotometry, was greater in ApoE^−/− and HCD mice than in WT mice (FIG. 42A).

The test system of experiment [3] is p19^Arf, p21^Waf1, and p27^Kip1. As to the kind of experiment: RT-PCR expression of p19^Arf, p21^Waf1, p27^Kip1 in HSCs. The settings on record: ApoE^−/− mice, in vivo treatment. Type of experiment: in vivo, mouse. The procedure: The expression of p15^Ink4b, p16^Ink4a, p18^Ink4c, p19^ARF, P21^Waf1, and p27^Kip1 was determined using RT-PCR, a more sensitive and quantitative assay, in ApoE^−/− and WT HSCs.

For experiment [4], the system named is Notch1. As to the kind of experiment: Notch1 expression in HSCs and lymphoid progenitors (Example 5). Type of experiment: in vivo, mouse. The procedure:
Cells were stained with monoclonal antibodies conjugated to various fluoroprobes. These antibodies included: Notch1, cKit (2B8), Sca-1 (E13-161.7), CD4 (L3T4), CD8 (53-6.72), CD90.1, CD25, CD44, TCRβ, NK1.1, γδTCR, CD45.1, CD45.2. The lineage cocktail consisted of CD4, CD8, B220 (RA3-6B2), TER-119, Mac-1 (MI/70), and Gr-1 (RB6-8C5). All antibodies were purchased from BD Bioscience (San Diego, Calif.). FACS analysis was carried out on a FACS Diva.
The Notch family is an evolutionarily conserved system of receptors and ligands that play a fundamental role in regulating cell-fate decision in many types of stem and progenitor cells, including HSCs. Notch1 plays a critical role in lymphocyte differentiation, wherein expression of Notch1 favors T cell differentiation. To clarify the effects of hypercholesterolemia on the expression Notch family, the expression of Notch family was screened in HSCs isolated from WT and ApoE^−/− mice. The percentage of HSCs expressing of Notch1 was higher in hypercholesterolemic than WT mice, whereas no differences in Notch2, Notch4, or Delta-like-1 were noted among groups (FIG. 47A). FIGS. 47A-47D show notch 1 expression is greater in HSCs from hypercholesterolemic mice. […] (B) Within the HSC population, a higher percentage of long term-HSCs expressed Notch1 than did short term-HSCs. This difference was evident in both WT and ApoE^−/− mice, although the percentage of short term-HSCs expressing Notch1 was twofold higher in ApoE^−/− than WT mice. […] (D) Treatment of ApoE^−/−, but not WT mice with SB203580 reduced the percentage of HSCs expressing Notch1. m±sd, n=5, *p<0.05 vs. WT, †p<0.05 vs. ApoE or HCD, p<0.05 vs. long-term HSCs.

Experiment [5] has as its system hematopoietic stem cells (HSCs). As to the kind of experiment: DCF-DA staining of HSCs from hypercholesterolemic mice (Example 6). The settings on record: ApoE^−/− and HCD mice, 100 mg/Kg i.p. every other day for 4 weeks. Type of experiment: in vivo, mouse. An excerpt:
All mice were purchased from Jackson Laboratories (Bar Harbor, Me.) and were maintained in the mouse barrier facility. Care of mice was in accordance with NIH guidelines and the Institutional Animal Care and Use Committee of the University of Massachusetts Medical School approved all protocols. Mice were kept on a 12 hr day/night schedule and were allowed free access to chow and water. ApoE^−/− and WT mice were fed standard mouse chow (5.4 g fat/100 g diet, 0% cholesterol). HCD mice were fed a diet with 10 g fat/100 g diet, […] (Research Diets, New Brunswick, N.J.). […] Azoxymethane (AOM) was given by intraperitoneal injection (10 mg/Kg weekly for 3 weeks); 1% dextran sodium sulfate was added to the drinking water for the Pt week after AOM treatment. It is known that hypercholesterolemia induces oxidant stress in many cell types. […] FIGS. 49A-49C show hypercholesterolemia increases oxidant levels in hematopoietic stem cells. […] (B) Representative photomicrograph showing oxLDL-staining in HSC and BM-MNC from WT and ApoE^−/− mice. (C) Regression of mean polyp number/mouse on the % of HSC staining for DCF-DA. […] Statistical analysis was carried out using the means for each group. […] One of the principal means by which hypercholesterolemia induces oxidant stress is via the generation of oxidized low density lipoprotein (oxLDL).

Experiment [6] deals with ApoE^−/−-derived HSCs. Kind of experiment: HSC transplantation into lethally irradiated WT recipients. The format is in vivo, mouse. To be noted: 12 weeks after transplant; ApoE^−/− donors pretreated 4 weeks.
Experimental: HSC were purified from freshly harvested bone marrow mononuclear cells as c-Kit^+Sca-1^+CD90.1^lowLin^− by FACS sorting. Recipient mice were C57BL/6 (WT) on standard chow. Recipients underwent lethal irradiation (1100 Rads delivered in 2 doses 3 hr apart). Immediately after the 2nd irradiation, recipients were anesthetized (2% isoflurane) and 10^6 HSC/0.1 ml sterile PBS were transplanted via retro-orbital injection. Mice were followed for 12 weeks before study or administration of AOM.
It was next determined the oxidant status of HSCs transplanted into WT mice. To this end, lethally irradiated WT mice were transplanted with HSCs from WT or ApoE^−/− mice, or with HSCs harvested from ApoE^−/− mice pretreated with NAC for 4 weeks. […] Numbers in each representative FACS analysis are the m±sd for that group; n=5; *p<0.05 vs. WT→WT group; †p<0.05 for ApoE+NAC→WT vs. Apoe→WT.

With `CC(=O)N[C@@H](CS)C(=O)O` [NAC, N-acetylcysteine], the differentiation towards adipocytes entry in experiment [1] is recorded as “reduced adipogenesis”. In experiment [2], the “H2O2 in HSC lysates” value is reported as “significantly decreased by in vivo NAC treatment”. For the same compound, in experiment [3], the “HSC expression of p19^Arf, p21^Waf1, and p27^Kip1” value is recorded as “fully reversed these increases”. Moreover, the “percentages of pre-B cells and pro-T cells expressing Notch1” value in experiment [4] (ApoE^−/− mice, in vivo treatment) was “these effects were reversed by in vivo treatment with NAC”. For the same compound, the “percentage of HSCs expressing Notch1” value in experiment [4] (WT mice) is “no effect was noted in WT mice”; in experiment [4] (hypercholesterolemic mice (ApoE^−/−, HCD), in vivo treatment), “significantly reduced the percentage of ApoE^−/− and HCD HSCs expressing Notch1”. Besides, the “DCF-DA staining in HSCs” value in experiment [5] was “significantly reversed”. The “percentage of γδT cells in peripheral blood and NKT cells in thymus and peripheral blood of WT recipients” value in experiment [6] is “significantly less in WT recipients transplanted with ApoE^−/−-derived HSCs than WT mice transplanted with WT HSCs, or HSCs harvested from NAC-pretreated ApoE^−/− donor mice”.
